Test results published in ChEMBL document CHEMBL1201862, “PubChem BioAssay data set” (2004).
Active and inactive are the calls of the source.

Key:
[1] = Counterscreen for IDE inhibitors: Luminescence-based cell-based high throughput dose response assay to identify compounds that are cytotoxic to HEK cells. [Related pubchem assays: 434962 (Primary screen (IDE inhibitors in singlicate)), 449730 (Counterscreen (Cytotoxicity in triplicate)), 435028 (Confirmation (IDE inhibitors in triplicate)) …; type: functional; settings: HEK293
Insulin-degrading enzyme = target: T1, Insulin-degrading enzyme (Homo sapiens, UniProt P14735); assay: Dose Response: Fluorescence polarization-based cell-based high throughput dose response assay for inhibitors of insulin-degrading enzyme (IDE). [Related pubchem assays: 434962 (Primary screen (IDE inhibitors in singlicate)), 449730 (Counterscreen (Cytotoxicity in triplicate)), 435028 (Confirmation (IDE inhibitors in triplicate)), 434984 (Summary …; type: functional
T1 sequence (P14735 whole entry): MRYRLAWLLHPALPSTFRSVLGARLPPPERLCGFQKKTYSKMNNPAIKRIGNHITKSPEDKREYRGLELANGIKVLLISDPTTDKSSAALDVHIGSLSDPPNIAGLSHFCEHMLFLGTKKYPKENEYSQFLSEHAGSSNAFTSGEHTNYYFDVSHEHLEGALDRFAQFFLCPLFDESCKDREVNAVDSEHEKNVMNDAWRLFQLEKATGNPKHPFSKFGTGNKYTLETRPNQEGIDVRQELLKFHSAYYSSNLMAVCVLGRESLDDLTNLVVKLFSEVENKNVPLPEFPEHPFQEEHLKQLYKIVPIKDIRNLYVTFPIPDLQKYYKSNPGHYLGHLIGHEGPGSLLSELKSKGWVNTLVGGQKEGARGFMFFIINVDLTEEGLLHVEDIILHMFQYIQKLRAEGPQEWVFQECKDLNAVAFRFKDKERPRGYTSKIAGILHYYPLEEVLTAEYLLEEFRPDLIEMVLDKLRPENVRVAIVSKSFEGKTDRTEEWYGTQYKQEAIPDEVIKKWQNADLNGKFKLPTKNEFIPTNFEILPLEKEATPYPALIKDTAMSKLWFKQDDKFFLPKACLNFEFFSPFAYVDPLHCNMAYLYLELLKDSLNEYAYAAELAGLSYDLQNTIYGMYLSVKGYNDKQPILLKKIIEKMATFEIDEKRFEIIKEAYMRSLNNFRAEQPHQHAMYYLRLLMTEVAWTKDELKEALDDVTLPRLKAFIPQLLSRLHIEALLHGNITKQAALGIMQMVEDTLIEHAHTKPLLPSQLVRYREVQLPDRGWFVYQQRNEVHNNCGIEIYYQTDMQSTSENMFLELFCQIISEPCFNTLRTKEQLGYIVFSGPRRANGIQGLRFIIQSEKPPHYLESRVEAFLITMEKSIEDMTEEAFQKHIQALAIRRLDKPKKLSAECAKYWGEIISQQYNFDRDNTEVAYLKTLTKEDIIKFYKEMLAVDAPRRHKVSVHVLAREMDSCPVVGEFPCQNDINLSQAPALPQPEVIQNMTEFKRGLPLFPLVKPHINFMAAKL

[2] = target: Glyceraldehyde-3-phosphate dehydrogenase (Homo sapiens, UniProt P04406)
Bcl-2-related protein A1 [3] = target: T2, Bcl-2-related protein A1 (Mus musculus, UniProt Q07440); assay: small-molecule antagonists of Bfl-1/BH3 interaction – biochemical, TR-FRET, mouse Bfl-1, confirmation (AID 621);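 further: TR-FRET binding of GST-Bfl-1 to FITC-labelled Bid peptide via terbium antibody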
T2 sequence (Q07440 whole entry): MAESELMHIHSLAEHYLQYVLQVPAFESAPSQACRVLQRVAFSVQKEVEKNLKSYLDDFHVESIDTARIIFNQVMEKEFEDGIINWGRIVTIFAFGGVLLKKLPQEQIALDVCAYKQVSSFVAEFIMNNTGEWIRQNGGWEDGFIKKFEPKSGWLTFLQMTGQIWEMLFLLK

Bcl-2-related protein A1 [4] = target: T2, Bcl-2-related protein A1; assay: Bfl-1 binding inhibitors, SAR follow-up, biochemical, fluorescence polarization (AID 1070)
[5] = target: Inward rectifier potassium channel 2 (Mus musculus, UniProt P35561); assay: Manual electrophysiological patch clamp assay for SAR compounds that inhibit/block inward-rectifying potassium ion channel Kir2.1. [Related pubchem assays: 1843 (Summary assay for Kir2.1 inhibitor assays.), 1672 (Primary HTS of 305616 compounds where 2592 were identified as active.)]; type: functional
[6] = antiviral protection against BTV-induced cell death – arbovirus, BSR cells, confirmation (AID 1250); type: functional;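 further: protection from viral cytopathic effect measured as cell viability by ATP luminescence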
[7] = A High Throughput Confirmatory Assay used to Identify Novel Compounds that Inhibit Mycobacterium Tuberculosis in the absence of Glycerol.; type: functional
[8] = microbe, parasite or virus in culture; type: functional; settings: Mycobacterium tuberculosis
HEK293 [9] = assay: cells; settings: Homo sapiens
HEK293 [10] = assay: cells; settings: Homo sapiens; remark: listed apart in the source
Estrogen receptor = target: T3, Estrogen receptor (Homo sapiens, UniProt P03372); assay: blockers of SRC-3 recruitment to ERα – biochemical, ELISA, streptavidin-HRP readout, orthogonal assay, confirmation (AID 1079)
T3 sequence (P03372 whole entry): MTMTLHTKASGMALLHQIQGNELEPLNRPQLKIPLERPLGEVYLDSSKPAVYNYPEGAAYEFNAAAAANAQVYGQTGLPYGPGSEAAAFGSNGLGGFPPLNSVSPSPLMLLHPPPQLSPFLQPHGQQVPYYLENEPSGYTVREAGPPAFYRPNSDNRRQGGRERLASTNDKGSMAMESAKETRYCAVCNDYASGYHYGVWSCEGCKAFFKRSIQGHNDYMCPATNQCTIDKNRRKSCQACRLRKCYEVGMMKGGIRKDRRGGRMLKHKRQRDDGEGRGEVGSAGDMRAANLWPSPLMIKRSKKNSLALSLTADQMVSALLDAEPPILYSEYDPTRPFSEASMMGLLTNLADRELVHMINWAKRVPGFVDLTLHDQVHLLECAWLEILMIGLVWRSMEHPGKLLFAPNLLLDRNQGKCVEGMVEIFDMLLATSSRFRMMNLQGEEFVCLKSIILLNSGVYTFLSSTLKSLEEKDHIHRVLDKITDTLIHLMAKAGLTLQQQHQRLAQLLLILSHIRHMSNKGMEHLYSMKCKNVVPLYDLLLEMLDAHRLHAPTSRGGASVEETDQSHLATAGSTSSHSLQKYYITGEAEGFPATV

[11] = target: Mothers against decapentaplegic homolog 3 (Homo sapiens, UniProt P84022); assay: inhibitors of SMAD-driven TGF-beta signaling – dose response (AID 715); type: functional
[12] = target: Protein-tyrosine kinase 2-beta (Homo sapiens, UniProt Q14289);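 further: potency of inhibitors of PYK2 kinase phosphorylation of poly-GT substrate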
[13] = target: Eukaryotic translation initiation factor 4E (Mus musculus, UniProt P63073); assay: blockers of eIF4G binding by eIF4E – biochemical, TR-FRET, dose response (AID 855); type: functional;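 further: potency for disrupting eIF4E binding to eIF4GI seen as loss of FRET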
BJ [14] = assay: BJ-TERT fibroblast viability loss – cell-based, RAS-independent, luminescence, dose response (AID 1933); type: functional; settings: Homo sapiens
BJ [15] = assay: cells; type: functional, cell-based; settings: Homo sapiens
[16] = Luminescence-based dose response cell-based high throughput screening assay for cytotoxic compounds using the IEC-6 intestinal epithelial cell line. [Related pubchem assays: 1858 (Summary AID.), 1825 (Counterscreen.), 1907 (Confirmation screen.)]; type: functional
BJ [17] = assay: BJ-TERT-LT-ST fibroblast viability loss – cell-based, RAS-independent, luminescence, dose response (AID 1935); type: functional; settings: Homo sapiens;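 further: BJ fibroblasts immortalized with TERT plus LT and ST oncogenes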
[18] = DRD fibroblast viability loss – cell-based, non-viral oncogenic, luminescence, dose response (AID 1934); type: functional; settings: Homo sapiens
BJ [19] = assay: growth inhibition of engineered Ras-driven BJ cells – cell-based, alamar blue fluorescence, cherrypicked samples, dose response (AID 2631); type: functional; settings: Homo sapiens;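 further: confirmatory dose-response assay in RAS-dependent BJ fibroblasts engineered with TERT, LT and ST, with cytotoxicity read by fluorescence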
Vero = assay: cells; type: functional; settings: Chlorocebus sabaeus
[20] = target: Sphingosine 1-phosphate receptor 2 (Homo sapiens, UniProt O95136); assay: Dose Response Cell Based Assay for Agonists of the S1P2 Receptor of Purchased Analogues. [Related pubchem assays: 729, 843, 854, 736 ]; type: functional
HeLa = assay: Cytotoxicity counterscreen assay for transcriptional activators of heat shock protein 70 (Hsp70). [Related pubchem assays: 1203, 1252 ]; type: functional; settings: Homo sapiens;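 further: cells exposed to compound for 16 hours before readout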
[21] = target: T4, Microphthalmia-associated transcription factor (Homo sapiens, UniProt O75030); assay: reducers of TRPM1 reporter luminescence, concentration series – cell-based, SK-MEL-5, cherry-picked, set 3, MITF inhibitor project, dose response (AID 493073); type: functional;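 further: SK-MEL-5 melanoma cells with luciferase driven by the MITF target TRPM1 promoter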
T4 sequence (O75030 whole entry): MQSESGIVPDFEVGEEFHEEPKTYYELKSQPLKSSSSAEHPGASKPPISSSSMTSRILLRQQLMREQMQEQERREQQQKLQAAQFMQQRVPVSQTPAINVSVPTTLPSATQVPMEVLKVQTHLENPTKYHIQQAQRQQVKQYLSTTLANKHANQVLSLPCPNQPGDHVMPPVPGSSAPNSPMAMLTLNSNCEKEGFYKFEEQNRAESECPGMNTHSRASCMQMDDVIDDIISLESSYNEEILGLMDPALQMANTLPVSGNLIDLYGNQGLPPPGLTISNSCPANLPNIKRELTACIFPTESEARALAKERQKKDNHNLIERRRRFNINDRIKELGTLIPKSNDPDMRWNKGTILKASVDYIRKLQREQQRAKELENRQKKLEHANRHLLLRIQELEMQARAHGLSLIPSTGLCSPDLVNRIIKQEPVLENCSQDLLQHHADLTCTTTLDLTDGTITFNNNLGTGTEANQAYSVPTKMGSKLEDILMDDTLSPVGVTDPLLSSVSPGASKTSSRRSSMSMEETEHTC

[22] = reduction of Shn3 3'UTR-driven luciferase in osteoblasts – cell-based, Clone20 osteoblasts, firefly luciferase, cherry-picked, dose response (AID 624132); type: functional;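 further: firefly luciferase luminescence from reporter carrying the Shn3 3'UTR in osteoblasts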
[23] = loss of viability in HepG2 cells – cell-based, CellTiter-Glo, cherry-picked, cytotoxicity control for Shn3 inhibitor project, dose response (AID 624134); type: functional
[24] = non-specific 3'UTR reporter inhibition in Clone20-Shn3RL – cell-based, Renilla luciferase, cherry-picked, counter-screen for Shn3 inhibitor project, dose response (AID 624133); type: functional
Paired box protein Pax-8 = Paired box protein Pax-8 (Homo sapiens, UniProt Q06710); assay: PAX8 transcriptional activity inhibition in RMG-I – RMG-I cells, luciferase, cherry-pick, dose response (AID 687027); type: functional, cell-based;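 further: luciferase reporter driven by Pax8 target thyroperoxidase promoter measured by SteadyGlo luminescence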
Bcl-2-like protein 10 = Bcl-2-like protein 10 (Homo sapiens, UniProt Q9HD36); assay: Concentration-response of Bcl-B inhibitors by biochemical FP with TR3 (AID 1243); type: functional
Mucolipin-3 = Mucolipin-3 (Homo sapiens, UniProt Q8TDD5); assay: Dose response cell-based high-throughput screening assay for agonists of the transient receptor potential channel ML3 (TRPML3). [Related pubchem assays: 1526, 1424, 1448 ]; type: functional
Ion channel NompC = Ion channel NompC (Danio rerio, UniProt Q7T1G6); assay: Fluorescence counterscreen assay for TRPML3 agonists: dose response cell-based high-throughput screening assay to identify agonists of the transient receptor potential channel N1 (TRPN1). [Related pubchem assays: 1526, 1424, 1448 ]; type: functional
[25] = Luminescence Cell-Based Dose Response to Identify Activators of 5'UTR Stem-Loop Driven Prion Protein mRNA Translation in H4-C Neuroglioblastoma Cells. [Related pubchem assays: 1829 (Project Summary), 1814 (Primary HTS)]; type: functional
[26] = Luminescence Cell-Based Dose Response HTS to Identify Activators of Luciferase Translation or Activity in H4 […] Cells. [Related pubchem assays: 1829 (Project Summary), 1814 (Primary HTS)]; type: functional
[27] = Luminescence Cell-Based Dose Response to Identify Activators of Luciferase Translation or Activity in H4-C Neuroglioblastoma Cells. [Related pubchem assays: 1829 (Project Summary), 1814 (Primary HTS)]; type: functional
[28] = Luminescence Cell-Based Dose Confirmation to Identify Activators of 5'UTR Stem-Loop Driven Alpha-Synuclein mRNA Translation in H4 Neuroglioblastoma Cells. [Related pubchem assays: 1829 (Project Summary), 1814 (Primary HTS)]; type: functional

Chain of Paired box protein Pax-8 (Q06710 whole entry): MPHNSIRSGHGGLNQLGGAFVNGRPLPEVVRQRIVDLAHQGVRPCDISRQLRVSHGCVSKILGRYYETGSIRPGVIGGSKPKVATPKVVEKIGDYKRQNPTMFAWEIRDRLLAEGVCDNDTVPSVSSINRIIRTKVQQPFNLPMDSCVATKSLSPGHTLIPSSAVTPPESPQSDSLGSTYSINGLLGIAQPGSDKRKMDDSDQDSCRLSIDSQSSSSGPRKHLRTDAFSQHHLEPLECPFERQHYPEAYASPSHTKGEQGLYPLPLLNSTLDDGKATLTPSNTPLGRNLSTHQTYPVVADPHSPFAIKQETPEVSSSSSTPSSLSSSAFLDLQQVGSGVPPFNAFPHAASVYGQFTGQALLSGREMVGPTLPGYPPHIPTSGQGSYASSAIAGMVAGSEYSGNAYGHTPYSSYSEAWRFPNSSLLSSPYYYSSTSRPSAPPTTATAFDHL
Chain of Glyceraldehyde-3-phosphate dehydrogenase (P04406 whole entry): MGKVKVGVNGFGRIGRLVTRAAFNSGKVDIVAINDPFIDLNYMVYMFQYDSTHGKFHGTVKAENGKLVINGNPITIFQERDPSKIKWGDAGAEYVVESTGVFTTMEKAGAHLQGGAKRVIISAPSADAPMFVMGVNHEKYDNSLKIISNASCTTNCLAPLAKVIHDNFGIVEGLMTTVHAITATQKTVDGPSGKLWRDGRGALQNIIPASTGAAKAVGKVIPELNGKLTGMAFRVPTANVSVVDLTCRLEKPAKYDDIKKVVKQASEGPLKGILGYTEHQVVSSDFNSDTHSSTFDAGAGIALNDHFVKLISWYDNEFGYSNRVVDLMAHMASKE
Chain of Inward rectifier potassium channel 2 (P35561 whole entry): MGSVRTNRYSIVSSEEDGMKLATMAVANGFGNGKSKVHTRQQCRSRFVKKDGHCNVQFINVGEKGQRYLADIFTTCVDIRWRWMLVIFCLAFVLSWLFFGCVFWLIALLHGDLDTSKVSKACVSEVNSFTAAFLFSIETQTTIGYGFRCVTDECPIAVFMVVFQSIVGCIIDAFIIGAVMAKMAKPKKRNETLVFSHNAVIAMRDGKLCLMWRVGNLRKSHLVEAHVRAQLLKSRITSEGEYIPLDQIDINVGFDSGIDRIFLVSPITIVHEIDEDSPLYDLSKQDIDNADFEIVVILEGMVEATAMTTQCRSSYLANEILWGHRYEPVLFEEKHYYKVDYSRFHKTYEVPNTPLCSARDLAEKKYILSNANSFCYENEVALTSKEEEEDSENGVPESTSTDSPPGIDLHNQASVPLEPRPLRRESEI
Chain of Mucolipin-3 (Q8TDD5 whole entry): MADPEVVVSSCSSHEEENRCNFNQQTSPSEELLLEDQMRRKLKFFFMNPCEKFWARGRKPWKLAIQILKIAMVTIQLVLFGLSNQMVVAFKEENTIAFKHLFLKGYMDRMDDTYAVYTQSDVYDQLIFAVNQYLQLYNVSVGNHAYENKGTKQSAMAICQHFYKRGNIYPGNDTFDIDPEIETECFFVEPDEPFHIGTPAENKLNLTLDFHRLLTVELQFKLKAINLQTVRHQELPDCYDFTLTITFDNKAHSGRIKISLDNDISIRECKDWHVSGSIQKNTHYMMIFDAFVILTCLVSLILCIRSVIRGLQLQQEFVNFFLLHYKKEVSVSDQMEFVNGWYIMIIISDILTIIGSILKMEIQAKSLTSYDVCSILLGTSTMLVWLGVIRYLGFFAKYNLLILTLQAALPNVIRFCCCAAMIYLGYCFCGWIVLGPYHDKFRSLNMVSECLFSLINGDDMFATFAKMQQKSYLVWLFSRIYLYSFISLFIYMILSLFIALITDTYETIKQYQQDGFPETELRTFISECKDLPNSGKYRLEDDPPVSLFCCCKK
Chain of Bcl-2-like protein 10 (Q9HD36 whole entry): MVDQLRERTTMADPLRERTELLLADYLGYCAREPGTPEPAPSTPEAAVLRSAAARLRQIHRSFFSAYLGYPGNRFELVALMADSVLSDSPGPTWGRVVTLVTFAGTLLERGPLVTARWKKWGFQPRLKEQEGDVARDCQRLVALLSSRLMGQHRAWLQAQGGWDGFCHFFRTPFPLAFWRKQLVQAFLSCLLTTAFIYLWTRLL
Chain of Eukaryotic translation initiation factor 4E (P63073 whole entry): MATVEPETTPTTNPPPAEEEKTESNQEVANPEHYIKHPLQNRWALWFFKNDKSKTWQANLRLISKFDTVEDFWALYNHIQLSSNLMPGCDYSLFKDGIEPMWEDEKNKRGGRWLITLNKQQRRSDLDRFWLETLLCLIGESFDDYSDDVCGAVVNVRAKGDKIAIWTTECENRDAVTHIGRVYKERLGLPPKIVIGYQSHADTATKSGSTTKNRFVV
Chain of Sphingosine 1-phosphate receptor 2 (O95136 whole entry): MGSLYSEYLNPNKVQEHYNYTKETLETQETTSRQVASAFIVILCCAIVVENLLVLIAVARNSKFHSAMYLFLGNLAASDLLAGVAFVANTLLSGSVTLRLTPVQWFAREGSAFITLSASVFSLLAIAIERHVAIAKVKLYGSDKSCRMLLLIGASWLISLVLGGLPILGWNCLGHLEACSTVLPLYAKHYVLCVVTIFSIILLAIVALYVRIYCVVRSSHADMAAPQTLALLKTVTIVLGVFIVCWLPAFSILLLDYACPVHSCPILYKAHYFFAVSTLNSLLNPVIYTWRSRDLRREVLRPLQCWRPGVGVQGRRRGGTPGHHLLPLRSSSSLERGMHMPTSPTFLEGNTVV
Chain of Mothers against decapentaplegic homolog 3 (P84022 whole entry): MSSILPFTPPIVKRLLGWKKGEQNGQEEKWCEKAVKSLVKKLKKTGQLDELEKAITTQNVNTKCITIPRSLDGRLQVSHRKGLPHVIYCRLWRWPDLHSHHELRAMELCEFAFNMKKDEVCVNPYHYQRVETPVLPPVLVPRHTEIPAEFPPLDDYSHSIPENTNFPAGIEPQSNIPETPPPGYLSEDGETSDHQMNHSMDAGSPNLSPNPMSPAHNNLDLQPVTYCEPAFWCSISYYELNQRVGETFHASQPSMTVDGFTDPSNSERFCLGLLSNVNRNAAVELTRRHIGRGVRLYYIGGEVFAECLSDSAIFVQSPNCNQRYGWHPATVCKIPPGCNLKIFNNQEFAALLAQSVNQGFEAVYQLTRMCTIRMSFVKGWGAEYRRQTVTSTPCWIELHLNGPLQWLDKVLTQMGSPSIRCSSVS
Chain of Ion channel NompC (Q7T1G6 whole entry): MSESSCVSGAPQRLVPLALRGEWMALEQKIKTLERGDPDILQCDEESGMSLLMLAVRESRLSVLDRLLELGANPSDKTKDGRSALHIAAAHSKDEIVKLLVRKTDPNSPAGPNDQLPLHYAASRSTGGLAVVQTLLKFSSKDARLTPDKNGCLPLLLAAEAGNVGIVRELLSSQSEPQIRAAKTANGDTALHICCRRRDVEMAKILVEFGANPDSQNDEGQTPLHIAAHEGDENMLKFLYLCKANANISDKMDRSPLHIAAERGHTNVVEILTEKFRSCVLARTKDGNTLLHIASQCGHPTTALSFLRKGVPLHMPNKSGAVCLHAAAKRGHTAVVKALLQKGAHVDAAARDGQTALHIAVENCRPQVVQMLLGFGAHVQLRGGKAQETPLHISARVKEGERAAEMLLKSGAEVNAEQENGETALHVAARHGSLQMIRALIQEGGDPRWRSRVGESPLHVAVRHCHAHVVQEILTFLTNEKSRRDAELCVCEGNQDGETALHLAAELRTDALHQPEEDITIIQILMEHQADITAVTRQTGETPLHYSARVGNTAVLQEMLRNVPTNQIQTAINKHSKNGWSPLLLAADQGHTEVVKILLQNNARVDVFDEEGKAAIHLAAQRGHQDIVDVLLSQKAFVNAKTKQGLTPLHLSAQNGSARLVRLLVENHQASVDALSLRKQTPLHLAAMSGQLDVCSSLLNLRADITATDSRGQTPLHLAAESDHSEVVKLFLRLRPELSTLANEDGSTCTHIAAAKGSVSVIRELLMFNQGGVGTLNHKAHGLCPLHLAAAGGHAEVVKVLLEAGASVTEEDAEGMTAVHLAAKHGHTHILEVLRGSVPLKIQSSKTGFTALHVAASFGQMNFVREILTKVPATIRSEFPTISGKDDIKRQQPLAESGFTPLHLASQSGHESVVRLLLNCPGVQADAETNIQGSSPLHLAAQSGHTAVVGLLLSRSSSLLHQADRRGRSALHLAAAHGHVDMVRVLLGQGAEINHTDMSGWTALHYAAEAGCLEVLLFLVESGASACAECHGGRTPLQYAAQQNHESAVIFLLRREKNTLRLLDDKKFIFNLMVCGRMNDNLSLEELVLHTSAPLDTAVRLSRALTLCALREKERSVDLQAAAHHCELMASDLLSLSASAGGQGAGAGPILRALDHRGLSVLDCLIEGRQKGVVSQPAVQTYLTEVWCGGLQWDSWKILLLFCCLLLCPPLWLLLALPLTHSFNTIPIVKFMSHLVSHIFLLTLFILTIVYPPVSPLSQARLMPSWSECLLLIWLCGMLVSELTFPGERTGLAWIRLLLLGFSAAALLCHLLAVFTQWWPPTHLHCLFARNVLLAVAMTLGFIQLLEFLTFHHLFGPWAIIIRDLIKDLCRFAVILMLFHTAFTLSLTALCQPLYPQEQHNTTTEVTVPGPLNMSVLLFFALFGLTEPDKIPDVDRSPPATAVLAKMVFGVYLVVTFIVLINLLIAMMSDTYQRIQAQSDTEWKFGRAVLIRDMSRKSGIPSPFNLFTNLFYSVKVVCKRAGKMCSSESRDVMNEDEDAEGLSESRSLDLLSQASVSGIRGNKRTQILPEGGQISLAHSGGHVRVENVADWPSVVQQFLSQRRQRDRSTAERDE

COc1cc(/C=C2\SC(=N)N(c3ccc(F)cc3)C2=O)ccc1O
IC50 [1]: 39.5 µM (not active)
IC50 (Insulin-degrading enzyme): 29.3 µM (not active)

COc1ccc(N2CCN(C3=C(Cl)C(=O)N(c4ccc(Cl)c(Cl)c4)C3=O)CC2)cc1
IC50 [2]: > 100 µM (not active)
IC50 (Bcl-2-related protein A1 [3]): 6.79 µM (active)
IC50 (Bcl-2-related protein A1 [4]): 1.25 µM (active)

COc1ccc(CNC2CCCc3ccccc32)cc1 (stereo unspecified)
IC50 [5]: 3.59 µM (active)

CCCC1=NN2C(=N)/C(=C/c3c[nH]c4ccccc34)C(=O)N=C2S1
IC50 [6]: 64.6 µM (active)

CCCCC(=O)/C=C/n1c(=S)oc2ccccc21
IC50 [7]: > 100 µM (active)
CC50 [8]: 19.8 µM (active)
EC50 (HEK293 [9]): > 59.6 µM (inactive)
EC50 (HEK293 [10]): > 2.21 µM (active)

CC(C)(C)OC(=O)[C@@H](CCC(=O)N1CCN(c2ccc(C#N)cc2)CC1)n1c(=S)[nH]c2ccccc2c1=O
IC50 (Estrogen receptor): 0.08 µM (not active)

O=[N+]([O-])c1cc(/C=N\Nc2nccs2)ccc1O
IC50 [11]: 30.9 µM (not active)
IC50 [12]: 3.15 µM (active)
IC50 [13]: 10.8 µM (active)

Cc1ccc(/C=N/NC(=O)c2[nH]nc3c2CCCC3)cc1
EC50 (BJ [14]): 0.31 µM (inconclusive)
EC50 (BJ [15]): 0.382 µM (active)
IC50 [16]: 0.32 µM (active)
EC50 (BJ [17]): 0.37 µM (inconclusive)
EC50 [18]: 0.711 µM (inconclusive)
EC50 (BJ [19]): < 0.104 µM (active)
CC50 (Vero): 0.24 µM (active)

Cc1cc(C(=O)Cn2cnc3c2c(=O)n(C)c(=O)n3C)c(C)n1Cc1ccccc1
EC50 [20]: > 30 µM (not active)

CC(C)C(=O)N1CCN(c2ccc(NC(=O)c3ccc([N+](=O)[O-])o3)cc2Cl)CC1
CC50 (HeLa): 3.45 µM (active)
AC50 [21]: 7.05 µM (active)
AC50 [22]: 0.954 µM (active)
AC50 [23]: 27.8 µM (active)
AC50 [24]: 8.27 µM (active)
AC50 (Paired box protein Pax-8): 3.25 µM (active)

O=C(O)c1ccc([N+](=O)[O-])c2c1NC(c1ccccc1)C1CC=CC21 (stereo unspecified)
EC50 (Bcl-2-like protein 10): 3.92 µM (active)

O=S(=O)(Nc1ccccc1N1CCCCC1)c1cccs1
EC50 (Mucolipin-3): 2.3 µM (active)
EC50 (Ion channel NompC): > 29.9 µM (not active)

C=CCSc1nnc2c3cccc(C)c3nc-2[nH]1
EC50 [25]: 0.317 µM (active)
EC50 [26]: < 0.1 µM (active)
EC50 [27]: 0.31 µM (active)
EC50 [28]: 0.311 µM (active)
